{"source": "paper PMC11272826", "about": "“Metabolism of alcohol ethoxylates (AEs) in rat, hamster, and human hepatocytes and liver S9: a pilot study for metabolic stability, metabolic pathway, and metabolites identification in vitro and in silico” (Archives of Toxicology, 2024)", "key": {"[1]": {"test": "Metabolic stability in liver S9 fraction (disappearance, half-life, CLint)", "details": "for half-life at 1 µM / half-life at 10 µM / microsomal CLint at 1 µM / microsomal CLint at 10 µM: pooled liver S9, pH 7.4", "method": "(§1) Calibration curves were generated using an external standard.\nIntrinsic in vitro clearance was calculated as follows: […]"}, "[2]": {"test": "Metabolite profiling by LC-MS in liver S9", "description": "as §1"}, "human hepatocytes [3]": {"tested_on": "human hepatocytes", "test": "Metabolite profiling by LC-MS in hepatocytes", "experimental": "(§2) The hepatocytes were thawed and re-suspended in Celsis InVitro KHB medium (pH 7.4). […] The samples were collected and stored at − 20 °C for further analysis.\n(§3) The in vitro metabolism of the five individual homologue AEs (i.e. C8EO4, C10EO5, C12EO4, C16EO8, and C18EO3) was analyzed by liquid chromatography–mass spectrometry (LC–MS). The UPLC-Q-Exactive Orbitrap MS system consisted of a Thermo Vanquish Horizon UHPLC with an autosampler, vacuum degasser, photodiode array (PDA) detector (210–500 nm), and column oven coupled to a Q-Exactive Orbitrap Focus mass spectrometer (Thermo Fisher Scientific, Waltham, MA, USA). The analytical column used was a Waters Acquity BEH C8 2.1 × 50 mm with 1.7 particle size (Waters Corp, Milford, MA, USA). The temperature of the column oven was 40 °C, and the injection volume was 4 μl. The aqueous eluent (A) was 0.1% formic acid (B) was acetonitrile. […] The eluent flow rate was 0.5 ml/min and the flow was directed to the MS through a PDA detector. The data acquisition was performed using positive Electrospray Ionization (ESI+) polarity with a capillary voltage of 3000 V. Capillary temperature was 320 °C and auxiliary gas temperature was 500 °C. The mass spectrometer was operated in the data-dependent MS2 mode, which acquires full-scan MS and MS/MS fragment ion data in the same run. Scan was performed with a resolution of 35,000 (full width at half maximum at m/z 200), while an Automated Gain Control target of a million ions, maximum injection time of 100 ms, and a scan range of 100–1000 m/z were used. […] Nitrogen was used as a sheath gas with 50 units, auxiliary gas with 10 units and as a sweep gas with 5 units. Ion chromatograms were extracted from the total ion chromatograms using calculated monoisotopic accurate masses with 5 mDa window. Calibration curves were generated using an external standard. The data were processed with Thermo Xcalibur 4.1.31.9 software."}, "rat hepatocytes [4]": {"tested_on": "rat hepatocytes", "test": "Metabolite profiling by LC-MS in hepatocytes", "experimental": "as §2, §3"}, "hamster hepatocytes [5]": {"tested_on": "hamster hepatocytes", "test": "Metabolite profiling by LC-MS in hepatocytes", "experimental": "as §2, §3"}, "[6]": {"test": "Metabolite profiling by LC-MS in buffer (incubation without cells)", "details": "metabolite profile of C10EO5, 10 µM incubation without cells, 120 min", "experimental": "as §2, §3"}, "[7]": {"test": "Metabolic stability in liver S9 fraction (disappearance, half-life, CLint)", "experimental": "The metabolic stability assay was performed in a 48-well plate format (duplicate with cofactors and single without cofactors).\nEach incubation contained test compound (final concentration of 1 or 10 µM), liver S9 (1.5 mg/ml protein content), Cofactors (1 mM NADPH + 1 mM UDPGA + 0.2 mM PAPS), MgCl2 (2 mM), and potassium phosphate buffer (100 mM at pH 7.4). […] The incubation was carried out at 37 °C for 60 min with and without cofactors. […] The samples were collected and stored at − 20 °C for further analysis.\nas §3\n(§4) The first-order rate constants k (min^−1) of the metabolism were obtained from the slope of time versus ln (% remaining) plots using Excel software. All time points (log-scale) were used in fitting the rate constant k based on visual inspection of the curves.\n(§5) The in vitro half-life (t1/2) of the test compound(s) is defined as: t1/2=ln2/k\n(§6) CLint,inc = k*V/(M), where V is the volume of the incubation and M is the number of cells or amount of S9 protein in the incubation."}, "[8]": {"test": "Metabolic stability in cryopreserved hepatocytes (disappearance, half-life, CLint)", "details": "human, pooled cryopreserved hepatocytes, pH 7.4", "experimental": "(§7) The metabolic stability assay was performed in a 48-well plate format (duplicate with cells and single without cells).\nas §2\n(§8) The UPLC-Q-Exactive Orbitrap MS system consisted of a Thermo Vanquish Horizon UHPLC with an autosampler, vacuum degasser, photodiode array (PDA) detector (210–500 nm), and column oven coupled to a Q-Exactive Orbitrap Focus mass spectrometer (Thermo Fisher Scientific, Waltham, MA, USA). The analytical column used was a Waters Acquity BEH C8 2.1 × 50 mm with 1.7 particle size (Waters Corp, Milford, MA, USA). The temperature of the column oven was 40 °C, and the injection volume was 4 μl. The aqueous eluent (A) was 0.1% formic acid (B) was acetonitrile. […] The eluent flow rate was 0.5 ml/min and the flow was directed to the MS through a PDA detector. The data acquisition was performed using positive Electrospray Ionization (ESI+) polarity with a capillary voltage of 3000 V. Capillary temperature was 320 °C and auxiliary gas temperature was 500 °C. The mass spectrometer was operated in the data-dependent MS2 mode, which acquires full-scan MS and MS/MS fragment ion data in the same run. Scan was performed with a resolution of 35,000 (full width at half maximum at m/z 200), while an Automated Gain Control target of a million ions, maximum injection time of 100 ms, and a scan range of 100–1000 m/z were used. […] Nitrogen was used as a sheath gas with 50 units, auxiliary gas with 10 units and as a sweep gas with 5 units. Ion chromatograms were extracted from the total ion chromatograms using calculated monoisotopic accurate masses with 5 mDa window. Calibration curves were generated using an external standard. The data were processed with Thermo Xcalibur 4.1.31.9 software.\nas §4, §5, §6"}, "human hepatocytes [9]": {"tested_on": "human hepatocytes", "test": "Metabolic stability in cryopreserved hepatocytes (disappearance, half-life, CLint)", "details": "human hepatocytes, range over 1 and 10 µM", "experimental": "as §7, §2, §8, §4, §5, §6"}, "[10]": {"test": "Metabolic stability in cryopreserved hepatocytes (disappearance, half-life, CLint)", "details": "Sprague Dawley, rat, pooled cryopreserved hepatocytes, pH 7.4", "experimental": "as §7, §2, §8, §4, §5, §6"}, "rat hepatocytes [11]": {"tested_on": "rat hepatocytes", "test": "Metabolic stability in cryopreserved hepatocytes (disappearance, half-life, CLint)", "details": "rat hepatocytes, range over 1 and 10 µM", "experimental": "as §7, §2, §8, §4, §5, §6"}, "[12]": {"test": "Metabolic stability in cryopreserved hepatocytes (disappearance, half-life, CLint)", "details": "Syrian, hamster, pooled cryopreserved hepatocytes, pH 7.4", "experimental": "as §7, §2, §8, §4, §5, §6"}, "hamster hepatocytes [13]": {"tested_on": "hamster hepatocytes", "test": "Metabolic stability in cryopreserved hepatocytes (disappearance, half-life, CLint)", "details": "hamster hepatocytes, range over 1 and 10 µM", "experimental": "as §7, §2, §8, §4, §5, §6"}, "[14]": {"details": "metabolite profile of C10EO5, 10 µM incubation, 60 min"}, "[15]": {"details": "metabolite profile of C10EO5, 10 µM incubation, 120 min"}}, "data": [{"smiles": "CCCCCCCCCCOCCOCCOCCOCCOCCO", "note": "[C10EO5]", "values": [{"measurement": "half-life at 1 µM", "setting": "[1]; Sprague-Dawley, rat", "value": 8.3, "unit": "min"}, {"measurement": "half-life at 10 µM", "setting": "[1]; Sprague-Dawley, rat", "value": 12, "unit": "min"}, {"measurement": "microsomal CLint at 1 µM", "setting": "[1]; Sprague-Dawley, rat", "value": 55.7, "unit": "µL/min/mg"}, {"measurement": "microsomal CLint at 10 µM", "setting": "[1]; Sprague-Dawley, rat", "value": 38, "unit": "µL/min/mg"}, {"measurement": "half-life at 1 µM", "setting": "[1]; Syrian, hamster", "value": 8.1, "unit": "min"}, {"measurement": "half-life at 10 µM", "setting": "[1]; Syrian, hamster", "value": 12, "unit": "min"}, {"measurement": "microsomal CLint at 1 µM", "setting": "[1]; Syrian, hamster", "value": 57.3, "unit": "µL/min/mg"}, {"measurement": "microsomal CLint at 10 µM", "setting": "[1]; Syrian, hamster", "value": 40, "unit": "µL/min/mg"}, {"measurement": "Initial concentration remaining after 60 min incubation", "setting": "[1]; hamster liver S9, range over 1 and 10 µM", "value": "0.01–4%"}, {"measurement": "Initial concentration remaining after 60 min incubation", "setting": "[1]; rat liver S9, range over 1 and 10 µM", "value": "0.01–4%"}, {"measurement": "Number of metabolites detected", "setting": "[2]; human liver S9", "value": 26}, {"measurement": "Percentage of the total peak area, Liver S9 without cofactors, Hamster", "setting": "[2]; [14]", "value": 97.9, "unit": "%"}, {"measurement": "Percentage of the total peak area, Liver S9 without cofactors, Human", "setting": "[2]; [14]", "value": 97.7, "unit": "%"}, {"measurement": "Percentage of the total peak area, Liver S9 without cofactors, Rat", "setting": "[2]; [14]", "value": 98.2, "unit": "%"}, {"measurement": "Number of metabolites detected", "setting": "human hepatocytes [3]; human hepatocytes", "value": 28}, {"measurement": "Percentage of the total peak area, Hepatocytes, Human", "setting": "human hepatocytes [3]; [15]", "value": 0.3, "unit": "%"}, {"measurement": "Percentage of the total peak area, Hepatocytes, Rat", "setting": "rat hepatocytes [4]; [15]", "value": 0.8, "unit": "%"}, {"measurement": "Number of metabolites detected", "setting": "rat hepatocytes [4]; rat hepatocytes", "value": 28}, {"measurement": "Number of metabolites detected", "setting": "hamster hepatocytes [5]; hamster hepatocytes", "value": 28}, {"measurement": "Percentage of the total peak area, Hepatocytes, Hamster", "setting": "hamster hepatocytes [5]; [15]", "value": 0.7, "unit": "%"}, {"measurement": "Percentage of the total peak area, Hepatocytes, Buffer", "setting": "[6]", "value": 98.7, "unit": "%"}, {"measurement": "Initial concentration remaining after 60 min incubation", "setting": "[7]; human liver S9, range over 1 and 10 µM", "value": "0.01–4%"}, {"measurement": "microsomal CLint at 1 µM", "setting": "[7]; human, pooled liver S9, pH 7.4", "value": 234, "unit": "µL/min/mg"}, {"measurement": "microsomal CLint at 10 µM", "setting": "[7]; human, pooled liver S9, pH 7.4", "value": 170, "unit": "µL/min/mg"}, {"measurement": "half-life at 1 µM", "setting": "[7]; human, pooled liver S9, pH 7.4, Half-lives t1/2, Liver S9, 1 μM", "value": 2, "unit": "min"}, {"measurement": "half-life at 10 µM", "setting": "[7]; human, pooled liver S9, pH 7.4, Half-lives t1/2, Liver S9, 10 μM", "value": 2.7, "unit": "min"}, {"measurement": "half-life at 1 µM", "setting": "[8]", "value": 4, "unit": "min"}, {"measurement": "half-life at 10 µM", "setting": "[8]", "value": 4.9, "unit": "min"}, {"measurement": "Initial concentration remaining after 120 min incubation", "setting": "human hepatocytes [9]", "value": "0.2–4%"}, {"measurement": "half-life at 1 µM", "setting": "[10]", "value": 2.9, "unit": "min"}, {"measurement": "half-life at 10 µM", "setting": "[10]", "value": 1.9, "unit": "min"}, {"measurement": "Initial concentration remaining after 120 min incubation", "setting": "rat hepatocytes [11]", "value": "0.2–4%"}, {"measurement": "half-life at 1 µM", "setting": "[12]", "value": 4.5, "unit": "min"}, {"measurement": "half-life at 10 µM", "setting": "[12]", "value": 10.6, "unit": "min"}, {"measurement": "Initial concentration remaining after 120 min incubation", "setting": "hamster hepatocytes [13]", "value": "0.2–4%"}]}]}
